Experimental data: PMC11241262, “Unravelling the Antifibrinolytic Mechanism of Action of the 1,2,3-Triazole Derivatives” (International Journal of Molecular Sciences, 2024)

Key:
[1] = molecular target: T1, plasmin (Homo sapiens, UniProt P00747); assay: Plasmin activity assay (Plasmin Inhibitor Screening Assay Kit); type: biochemical; conditions: for inhibition at 500 µM: 0.5 mM; for inhibition at 5000 µM: 5 mM; for inhibition at 10000 µM: 10 mM; for inhibition at 15000 µM: 15 mM; for inhibition at 20000 µM: 20 mM; for inhibition at 30000 µM: 30 mM; for increase of IC50 of plasmin's catalytic domain compared to IC50 in plasma clot lysis assay: plasma clot lysis IC50 from Bosch-Sanz et al. [43]
T1 construct: purchased abcam
T1 sequence (P00747 97-580 limits assumed): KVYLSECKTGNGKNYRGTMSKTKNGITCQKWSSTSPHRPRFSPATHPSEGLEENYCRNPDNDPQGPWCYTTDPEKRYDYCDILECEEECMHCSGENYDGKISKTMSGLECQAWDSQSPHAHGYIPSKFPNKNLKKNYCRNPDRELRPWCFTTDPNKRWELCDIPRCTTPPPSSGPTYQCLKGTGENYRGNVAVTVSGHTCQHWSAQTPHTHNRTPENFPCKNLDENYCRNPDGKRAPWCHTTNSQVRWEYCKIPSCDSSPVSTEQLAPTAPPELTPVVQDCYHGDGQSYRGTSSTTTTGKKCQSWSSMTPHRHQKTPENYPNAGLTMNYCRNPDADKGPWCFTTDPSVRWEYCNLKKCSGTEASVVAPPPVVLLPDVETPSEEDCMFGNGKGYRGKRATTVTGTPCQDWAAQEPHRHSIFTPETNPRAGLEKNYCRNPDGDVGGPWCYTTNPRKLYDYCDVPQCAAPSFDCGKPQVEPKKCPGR
T1 sequence (P00747 581-810 limits assumed): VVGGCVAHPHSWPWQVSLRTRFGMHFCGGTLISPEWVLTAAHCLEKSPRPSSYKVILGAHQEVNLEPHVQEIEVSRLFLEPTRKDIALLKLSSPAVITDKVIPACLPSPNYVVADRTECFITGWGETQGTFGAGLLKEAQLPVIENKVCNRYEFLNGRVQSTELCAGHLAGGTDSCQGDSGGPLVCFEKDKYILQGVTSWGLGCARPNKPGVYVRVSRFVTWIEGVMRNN
Protocol: The potential activity of the studied compounds on the catalytic domain of plasmin was evaluated using the Plasmin Inhibitor Screening Assay Kit (abcam), following the manufacturer’s instructions. Briefly, the assay measures the inhibition of plasmin’s activity by the tested compounds through the cleavage of a fluorogenic peptide substrate. The assay was performed in flat-bottom 96-well plates. Plasmin was pre-incubated with different concentrations of the tested compounds for 10 min at RT prior to the addition of the peptide substrate. Plasmin’s activity was then measured by monitoring the increase in fluorescence intensity over time using a microplate reader (Infinite M Plex, Tecan, Männedorf, Switzerland) at an Ex/Em of 360/450 nm, every minute at 37 °C for 10 min. The slope of each sample was determined using the initial and final fluorescence values and their respective time points. (1) Fluorescence slope=RFU2−RFU1/t2−t1
The Relative Plasmin Inhibition was calculated according to the manufacturer’s instructions using a control slope with no compound (enzyme control):(2) Relative Plasmin Inhibition%=SlopeControl−SlopeCompound/SlopeControl×100

[2] = molecular target: T2, tissue-type plasminogen activator (tPA) (Homo sapiens, UniProt P00750); assay: tPA activity assay (chromogenic substrate); type: biochemical; conditions: for activity on tPA's active site: at the tested concentrations
T2 construct: purchased abcam
T2 sequence (P00750 36-562): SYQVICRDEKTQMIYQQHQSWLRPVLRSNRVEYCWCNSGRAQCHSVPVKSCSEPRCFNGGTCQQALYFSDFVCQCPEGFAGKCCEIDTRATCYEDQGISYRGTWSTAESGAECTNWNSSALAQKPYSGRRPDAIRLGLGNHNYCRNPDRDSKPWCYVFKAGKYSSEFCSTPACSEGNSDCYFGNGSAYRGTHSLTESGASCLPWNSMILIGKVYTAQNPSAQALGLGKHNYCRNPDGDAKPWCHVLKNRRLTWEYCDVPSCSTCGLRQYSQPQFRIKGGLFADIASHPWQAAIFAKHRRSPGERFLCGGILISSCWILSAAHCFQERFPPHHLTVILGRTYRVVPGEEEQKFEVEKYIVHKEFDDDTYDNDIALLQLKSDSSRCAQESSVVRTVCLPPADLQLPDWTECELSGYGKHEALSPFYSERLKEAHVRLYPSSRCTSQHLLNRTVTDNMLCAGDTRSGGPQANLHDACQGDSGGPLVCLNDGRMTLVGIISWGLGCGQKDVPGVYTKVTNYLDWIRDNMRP
Protocol: Tris hydrochloride, 1M, pH = 7.5 solution (Thermo Fisher Scientific, Waltham, MA, USA) was used as buffer. […] Recombinant human Tissue Plasminogen Activator (abcam, Cambridge, UK) served as the source of tPA, and was stored at −20 °C until used.
The assay measures the inhibition of tPA’s catalytic domain by the tested compounds employing a chromogenic substrate. Different concentrations of the studied molecules were incubated with tPA in a 96-well plate at 37 °C for 10 min. […] After, 20 μL of tPA’s substrate was added to each well. […] The slope for each assay was obtained from the initial and final absorbance values and their respective time points, or until complete substrate cleavage was achieved. (3) Absorbance slope=Abs2−Abs1/t2−t1
The Relative tPA Inhibition for each condition was calculated using Equation (2). Then, the Relative tPA Activity (%) was calculated by subtracting the relative tPA inhibition of each concentration from the total activity of the enzyme, obtained from a control without a compound.

[3] = molecular target: T3, plasminogen (Homo sapiens, UniProt P00747); assay: Plasminogen activation assay (conversion of plasminogen into plasmin by tPA in the absence of fibrin); type: biochemical; conditions: for concentration at which compound increased tPA's activity by 50%: plasminogen-tPA isolated system, absence of fibrin
T3 construct: purchased abcam
T3 sequence (P00747 20-810 limits assumed): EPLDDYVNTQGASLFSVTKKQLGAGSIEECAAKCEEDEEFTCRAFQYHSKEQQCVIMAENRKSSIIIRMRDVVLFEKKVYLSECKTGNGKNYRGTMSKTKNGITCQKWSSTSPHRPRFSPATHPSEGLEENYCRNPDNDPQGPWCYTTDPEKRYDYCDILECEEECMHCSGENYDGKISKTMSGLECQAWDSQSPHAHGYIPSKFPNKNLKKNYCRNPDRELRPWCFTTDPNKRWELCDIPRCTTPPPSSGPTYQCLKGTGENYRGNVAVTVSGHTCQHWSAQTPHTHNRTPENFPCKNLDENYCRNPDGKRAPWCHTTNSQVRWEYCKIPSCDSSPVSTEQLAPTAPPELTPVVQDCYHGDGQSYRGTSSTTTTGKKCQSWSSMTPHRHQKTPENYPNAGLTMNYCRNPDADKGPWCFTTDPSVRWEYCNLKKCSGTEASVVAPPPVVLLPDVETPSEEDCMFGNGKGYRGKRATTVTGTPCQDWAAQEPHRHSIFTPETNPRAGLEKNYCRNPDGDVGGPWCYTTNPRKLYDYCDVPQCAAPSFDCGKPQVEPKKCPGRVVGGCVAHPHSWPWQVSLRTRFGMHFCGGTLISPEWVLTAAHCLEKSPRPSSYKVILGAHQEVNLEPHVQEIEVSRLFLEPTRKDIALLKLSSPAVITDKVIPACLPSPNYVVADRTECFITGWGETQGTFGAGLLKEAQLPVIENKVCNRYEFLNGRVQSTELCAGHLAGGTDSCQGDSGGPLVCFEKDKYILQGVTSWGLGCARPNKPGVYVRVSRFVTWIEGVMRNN
Protocol: The conversion rate of plasminogen to plasmin was assessed using the Tissue-Type Plasminogen Activator Activity Assay Kit (abcam), following the manufacturer’s instructions. The assay measures the ability of tPA to activate plasminogen to plasmin in the presence of the tested compounds using a chromogenic substrate.
A solution of plasminogen and plasmin substrate was mixed with a previously prepared solution of the studied compound and tPA in Tris HCl buffer in a 96-well plate. The final concentration of tPA in each well was 6.8 µg/mL, in a final volume of 100 µL. Absorbance was measured on a microplate reader at a wavelength of 405 nm every minute at 37 °C for 2 h or until the system reached saturation. The absorbance slope of each sample was determined using Equation (3). The Relative Plasminogen Activation (%) for each condition was calculated with Equation (4), using a control without a compound (enzyme control). (4) Relative Plasminogen Activation (%)=SlopeCompound−SlopeControl/SlopeControl×100
Values were fitted to a linear model using MATLAB R2023a (The Math Works Inc., Natick, MA, USA). Concentrations at which each compound was able to increase plasminogen’s conversion by 50% in comparison to the enzyme control were extracted and compared for the three molecules.

[4] = tested on: whole blood clot formation; assay: Whole blood coagulation assay (clot formation, no exogenous tPA); parameters: species or system human; conditions: 40 µM, 37 °C, fibrinolysis not triggered
Protocol: (§1) Blood was obtained by venipuncture from healthy donors after they signed an informed consent form. Blood was transferred into vacuum non-anticoagulant Vacutainer® tubes (BD, Franklin Lakes, NJ, USA). Blood samples were immediately used for the assay after extraction.
Prior to blood addition, 20 µL of the evaluated compounds was added to glass tubes, in a final concentration of 40 µM. As a control clot, 20 µL of Tris HCl buffer with no compound was used. Next, 800 µL of blood was transferred to each tube followed by casual shaking to ensure proper mixing. Tubes were incubated at 37 °C for 30 min to allow clot formation and posterior lysis. Blood clotting and lysis were visually monitored and photographs were taken after 30 min.

[5] = tested on: whole blood clots; assay: Whole blood dosage (effective antifibrinolytic dosage, tPA-triggered clot lysis); parameters: species or system human; conditions: 10 µg/mL tPA, 37 °C
Protocol: as §1
Glass tubes were prepared with 20 µL of a mixture of tPA, in a final concentration of 10 µg/mL, and the evaluated compounds, in a final concentration of 10, 20, 40, or 60 µM in Tris HCl buffer. A control clot was obtained with 20 µL of tPA with no compound. Then, 800 µL of blood was transferred to each tube and tubes were monitored for clot formation and lysis. The assay was performed with casual shaking. […] The ex vivo effective dosage for each compound was determined by their ability to inhibit complete clot degradation. Photographs were taken after 24 h of incubation.

[6] = mostly cardiac surgery patients; ref [21],[29],[36],[37],[38]; cited from earlier work
[7] = ref [28],[29],[35]; cited from earlier work
[8] = tested on: whole blood clots; assay: Whole blood clot lysis assay (D-dimer ELISA); parameters: species or system human; conditions: 20 µM, 10 µg/mL tPA
Protocol: as §1
The quantification of D-dimer released during clot lysis was performed using the human D-dimer ELISA kit (Thermo Fisher Scientific). Directly after extraction, 500 µL of blood was transferred to four different glass tubes and allowed to clot for 10 min at 37 °C. Tubes were incubated at 37 °C for an additional 1 h to enable clot retraction from the walls of the glass tubes [53]. Then, 100 µL of a mixture of tPA and the studied compounds was added on top of each clot. […] As a control clot, 100 µL of tPA without compound in Tris HCl buffer was added. Tubes were incubated at 37 °C and, at time points of 5 min, 2, 4, 7, and 24 h, samples of each tube were extracted for D-dimer quantification. After gentle shaking of the tubes, 5 µL of the supernatant from each tube was pipetted into Eppendorf tubes and stored at −20 °C until assayed. The ELISA assay was performed as described by the manufacturer’s instructions and absorbance was read in a microplate reader at the wavelengths of 450 nm and 550 nm. […]

[9] = read-out: percentage of plasmin's inhibition

| SMILES | inhibition at 500 µM [1, 9] | inhibition at 5000 µM [1, 9] | inhibition at 10000 µM [1, 9] | inhibition at 15000 µM [1, 9] | inhibition at 20000 µM [1, 9] | inhibition at 30000 µM [1, 9] | increase of IC50 of plasmin's catalytic domain compared to IC50 in plasma clot lysis assay [1] | percentage of tPA's activity ([2]; 0.5 mM) | percentage of tPA's activity ([2]; 1 mM) | percentage of tPA's activity ([2]; 5 mM) | percentage of tPA's activity ([2]; 10 mM) | percentage of tPA's activity ([2]; 15 mM) | activity on tPA's active site [2] | concentration at which compound increased tPA's activity by 50% [3] | effect on clot formation [4] | effective dosage (concentration preventing complete clot degradation after 24 h) [5] | other results |
| --- | --- | --- | --- | --- | --- | --- | --- | --- | --- | --- | --- | --- | --- | --- | --- | --- | --- |
| NC[C@H]1CC[C@H](C(=O)O)CC1 [TXA, tranexamic acid, reference compound] | 2.61% | 12.3% | 22.4% | 28% | 29.1% | 53.1% | 1000 fold | 92.08% | 89.90% | 87.18% | 87.33% | 84.84% | no activity | 283.01 µM | do not have any effect | 60 µM | inhibition at 50000 µM ([1]; 50 mM, read-out: percentage of plasmin's inhibition): 59.2%; increased incidence of postoperative seizures [6]: 7 fold; cerebrospinal fluid concentration as share of plasma concentration [7]: approximately 10% |
| O=c1[nH]c(-c2cn(C3CCNCC3)nn2)no1 [compound 1] | 0.56% | 4.3% | 7.36% | 11.6% | 48% | 76.6% | 1000 fold | 96.53% | 94.21% | 96.95% | 91.20% | 101.89% | no activity | 4.67 µM | do not have any effect | 10 µM | IC50 ([1]; inhibition of plasmin's cleavage of a synthetic substrate by 50%): 20.6 ± 0.78 mM; potency relative to TXA in catalyzing plasminogen's activation by tPA ([3]; from concentration enhancing tPA's activity by 50%): more than 50 times; improvement in antifibrinolytic activity over TXA (D-dimer quantification) ([8]; whole blood): more than 2 fold; D-dimer release lower than for compound 5 ([8]; timepoint 24 h): around 35% |
